System: PBMC cultures from HIV-1 infected subjects on cART
Test: Induced cytokines and chemokines in PBMC cultures from HIV-1 infected subjects on cART (multiplexed Luminex)
Assay type: cell-based, human
Settings: for GRO-α / GRO-α Fold vs DMSO / Granzyme B / Granzyme B Fold vs DMSO / I-TAC / I-TAC Fold vs DMSO / IFN-α / IFN-α Fold vs DMSO / IFN-γ / IFN-γ Fold vs DMSO / IL-6 pg/ml / IL-8 pg/ml / IL-10 pg/ml / IL-18 pg/ml / IL-23 pg/ml / IL-1RA / IL-1RA Fold vs DMSO / IL-1β / IL-1β Fold vs DMSO / IL-6 Fold vs DMSO / IL-8 Fold vs DMSO / IL-10 Fold vs DMSO / IL-18 Fold vs DMSO / IL-23 Fold vs DMSO / IP-10 pg/ml / IP-10 Fold vs DMSO / MCP-1 pg/ml / MCP-1 Fold vs DMSO / MIP-1α / MIP-1α Fold vs DMSO / MIP-1β / MIP-1β Fold vs DMSO / MIP-3α / MIP-3α Fold vs DMSO / MMP-1 pg/ml / MMP-1 Fold vs DMSO / TNF-α / TNF-α Fold vs DMSO / IL-12p70 pg/ml / IL-12p70 Fold vs DMSO: day 2, geometric mean, 4 subjects
Method: To further characterize the immune modulatory effect of TLR8 agonists in cells from HIV-infected subjects, the production of secreted cytokines and chemokines was measured in PBMCs from 4 HIV-infected subjects on suppressive cART (anonymized participant IDs 180-183). PBMCs were purified, as described in Example 121, and immediately added to tissue culture plates pre-equilibrated at 37° C. with media containing DMSO (vehicle control) or with the TLR8 modulating compound Example 15 at concentrations ranging from 1.0 nM to 10.0 μM. On day 2 after treatment, cell-free culture supernatants were collected and frozen at −80 C for subsequent analysis. Frozen supernatants were thawed at room temperature, and the indicated cytokines and chemokines were quantified with a custom multiplexed xMAP Luminex® assay following the manufacturer's instructions (Thermo Fisher Scientific Inc., Grand Island, N.Y., custom-designed kit).
Data are expressed as geometric mean cytokine values (pg/ml) obtained from 4 subjects' PBMCs. Geometric mean fold-activation from three independent incubation samples for each condition. Fold (fold-activation) is calculated as a ratio of the concentration of cytokine detected in cell culture supernatants from agonist treated samples relative to DMSO treated samples

## CCCC[C@H](CO)Nc1nc(N)nc2cccnc12 [Example 15]
Ex 15 1 nM
  GRO-α: 31 pg/mL
  GRO-α Fold vs DMSO: 1 fold
  Granzyme B: 80 pg/mL
  Granzyme B Fold vs DMSO: <1 fold
  I-TAC: 82 pg/mL
  I-TAC Fold vs DMSO: 2 fold
  IFN-α: 4 pg/mL
  IFN-α Fold vs DMSO: 2 fold
  IFN-γ: 50 pg/mL
  IFN-γ Fold vs DMSO: 2 fold
  IL-6 pg/ml: 61 pg/mL
  IL-8 pg/ml: 624 pg/mL
  IL-10 pg/ml: 25 pg/mL
  IL-18 pg/ml: 23 pg/mL
  IL-23 pg/ml: 131 pg/mL
  IL-1RA: 11610 pg/mL
  IL-1RA Fold vs DMSO: 3 fold
  IL-1β: 5 pg/mL
  IL-1β Fold vs DMSO: 2 fold
  IL-6 Fold vs DMSO: 1 fold
  IL-8 Fold vs DMSO: 2 fold
  IL-10 Fold vs DMSO: 1 fold
  IL-18 Fold vs DMSO: 1 fold
  IL-23 Fold vs DMSO: 2 fold
  IP-10 pg/ml: 696 pg/mL
  IP-10 Fold vs DMSO: 3 fold
  MCP-1 pg/ml: 180 pg/mL
  MCP-1 Fold vs DMSO: 3 fold
  MIP-1α: 251 pg/mL
  MIP-1α Fold vs DMSO: 5 fold
  MIP-1β: 2189 pg/mL
  MIP-1β Fold vs DMSO: 2 fold
  MIP-3α: 23 pg/mL
  MIP-3α Fold vs DMSO: 1 fold
  MMP-1 pg/ml: 119 pg/mL
  MMP-1 Fold vs DMSO: 1 fold
Ex 15 10 nM
  GRO-α: 29 pg/mL
  GRO-α Fold vs DMSO: 1 fold
  Granzyme B: 74 pg/mL
  Granzyme B Fold vs DMSO: <1 fold
  I-TAC: 70 pg/mL
  I-TAC Fold vs DMSO: 1 fold
  IFN-α: 4 pg/mL
  IFN-α Fold vs DMSO: 2 fold
  IFN-γ: 48 pg/mL
  IFN-γ Fold vs DMSO: 2 fold
  IL-6 pg/ml: 61 pg/mL
  IL-8 pg/ml: 333 pg/mL
  IL-10 pg/ml: 21 pg/mL
  IL-18 pg/ml: 26 pg/mL
  IL-23 pg/ml: 86 pg/mL
  IL-1RA: 5309 pg/mL
  IL-1RA Fold vs DMSO: 1 fold
  IL-1β: 2 pg/mL
  IL-1β Fold vs DMSO: 1 fold
  IL-6 Fold vs DMSO: 1 fold
  IL-8 Fold vs DMSO: 1 fold
  IL-10 Fold vs DMSO: 1 fold
  IL-18 Fold vs DMSO: 2 fold
  IL-23 Fold vs DMSO: 1 fold
  IP-10 pg/ml: 259 pg/mL
  IP-10 Fold vs DMSO: 1 fold
  MCP-1 pg/ml: 91 pg/mL
  MCP-1 Fold vs DMSO: 1 fold
  MIP-1α: 70 pg/mL
  MIP-1α Fold vs DMSO: 1 fold
  MIP-1β: 1302 pg/mL
  MIP-1β Fold vs DMSO: 1 fold
  MIP-3α: 23 pg/mL
  MIP-3α Fold vs DMSO: 1 fold
  MMP-1 pg/ml: 104 pg/mL
  MMP-1 Fold vs DMSO: 1 fold
  TNF-α: 35 pg/mL
  TNF-α Fold vs DMSO: 2 fold
Ex 15 100 nM
  GRO-α: 469 pg/mL
  GRO-α Fold vs DMSO: 20 fold
  Granzyme B: 79 pg/mL
  Granzyme B Fold vs DMSO: <1 fold
  I-TAC: 32 pg/mL
  I-TAC Fold vs DMSO: 1 fold
  IFN-α: 3 pg/mL
  IFN-α Fold vs DMSO: 1 fold
  IFN-γ: 49 pg/mL
  IFN-γ Fold vs DMSO: 2 fold
  IL-6 pg/ml: 4424 pg/mL
  IL-8 pg/ml: 2561 pg/mL
  IL-10 pg/ml: 2459 pg/mL
  IL-18 pg/ml: 20 pg/mL
  IL-23 pg/ml: 130 pg/mL
  IL-1RA: 41213 pg/mL
  IL-1RA Fold vs DMSO: 12 fold
  IL-1β: 135 pg/mL
  IL-1β Fold vs DMSO: 45 fold
  IL-6 Fold vs DMSO: 57 fold
  IL-8 Fold vs DMSO: 8 fold
  IL-10 Fold vs DMSO: 145 fold
  IL-12p70 pg/ml: 6 pg/mL
  IL-12p70 Fold vs DMSO: 2 fold
  IL-18 Fold vs DMSO: 1 fold
  IL-23 Fold vs DMSO: 2 fold
  IP-10 pg/ml: 226 pg/mL
  IP-10 Fold vs DMSO: 1 fold
  MCP-1 pg/ml: 2162 pg/mL
  MCP-1 Fold vs DMSO: 33 fold
  MIP-1α: 172 pg/mL
  MIP-1α Fold vs DMSO: 3 fold
  MIP-1β: 1302 pg/mL
  MIP-1β Fold vs DMSO: 1 fold
  MIP-3α: 28 pg/mL
  MIP-3α Fold vs DMSO: 1 fold
  MMP-1 pg/ml: 198 pg/mL
  MMP-1 Fold vs DMSO: 2 fold
  TNF-α: 132 pg/mL
  TNF-α Fold vs DMSO: 6 fold
Ex 15 1000 nM
  GRO-α: 413 pg/mL
  GRO-α Fold vs DMSO: 18 fold
  Granzyme B: 878 pg/mL
  Granzyme B Fold vs DMSO: 4 fold
  I-TAC: 105 pg/mL
  I-TAC Fold vs DMSO: 2 fold
  IFN-α: 6 pg/mL
  IFN-α Fold vs DMSO: 3 fold
  IFN-γ: 5693 pg/mL
  IFN-γ Fold vs DMSO: 228 fold
  IL-6 pg/ml: 22600 pg/mL
  IL-8 pg/ml: 1565 pg/mL
  IL-10 pg/ml: 3719 pg/mL
  IL-18 pg/ml: 191 pg/mL
  IL-23 pg/ml: 465 pg/mL
  IL-1RA: 164731 pg/mL
  IL-1RA Fold vs DMSO: 46 fold
  IL-1β: 4735 pg/mL
  IL-1β Fold vs DMSO: 1578 fold
  IL-6 Fold vs DMSO: 290 fold
  IL-8 Fold vs DMSO: 5 fold
  IL-10 Fold vs DMSO: 219 fold
  IL-12p70 pg/ml: 524 pg/mL
  IL-12p70 Fold vs DMSO: 175 fold
  IL-18 Fold vs DMSO: 11 fold
  IL-23 Fold vs DMSO: 8 fold
  IP-10 pg/ml: 741 pg/mL
  IP-10 Fold vs DMSO: 3 fold
  MCP-1 pg/ml: 1464 pg/mL
  MCP-1 Fold vs DMSO: 22 fold
  MIP-1α: 18689 pg/mL
  MIP-1α Fold vs DMSO: 374 fold
  MIP-1β: 415739 pg/mL
  MIP-1β Fold vs DMSO: 340 fold
  MIP-3α: 1085 pg/mL
  MIP-3α Fold vs DMSO: 42 fold
  MMP-1 pg/ml: 317 pg/mL
  MMP-1 Fold vs DMSO: 3 fold
  TNF-α: 34880 pg/mL
  TNF-α Fold vs DMSO: 1661 fold
Ex 15 3000 nM
  GRO-α: 418 pg/mL
  GRO-α Fold vs DMSO: 18 fold
  Granzyme B: 857 pg/mL
  Granzyme B Fold vs DMSO: 4 fold
  I-TAC: 98 pg/mL
  I-TAC Fold vs DMSO: 2 fold
  IFN-α: 6 pg/mL
  IFN-α Fold vs DMSO: 3 fold
  IFN-γ: 3586 pg/mL
  IFN-γ Fold vs DMSO: 143 fold
  IL-6 pg/ml: 15198 pg/mL
  IL-8 pg/ml: 1139 pg/mL
  IL-10 pg/ml: 4747 pg/mL
  IL-18 pg/ml: 308 pg/mL
  IL-23 pg/ml: 1163 pg/mL
  IL-1RA: 88340 pg/mL
  IL-1RA Fold vs DMSO: 25 fold
  IL-1β: 5302 pg/mL
  IL-1β Fold vs DMSO: 1767 fold
  IL-6 Fold vs DMSO: 195 fold
  IL-8 Fold vs DMSO: 4 fold
  IL-10 Fold vs DMSO: 279 fold
  IL-12p70 pg/ml: 381 pg/mL
  IL-12p70 Fold vs DMSO: 127 fold
  IL-18 Fold vs DMSO: 18 fold
  IL-23 Fold vs DMSO: 19 fold
  IP-10 pg/ml: 711 pg/mL
  IP-10 Fold vs DMSO: 3 fold
  MCP-1 pg/ml: 1646 pg/mL
  MCP-1 Fold vs DMSO: 25 fold
  MIP-1α: 21047 pg/mL
  MIP-1α Fold vs DMSO: 421 fold
  MIP-1β: 293183 pg/mL
  MIP-1β Fold vs DMSO: 240 fold
  MIP-3α: 2141 pg/mL
  MIP-3α Fold vs DMSO: 82 fold
  MMP-1 pg/ml: 311 pg/mL
  MMP-1 Fold vs DMSO: 3 fold
  TNF-α: 64062 pg/mL
  TNF-α Fold vs DMSO: 3051 fold
Ex 15 10000 nM
  GRO-α: 433 pg/mL
  GRO-α Fold vs DMSO: 19 fold
  Granzyme B: 644 pg/mL
  Granzyme B Fold vs DMSO: 3 fold
  I-TAC: 69 pg/mL
  I-TAC Fold vs DMSO: 1 fold
  IFN-α: 4 pg/mL
  IFN-α Fold vs DMSO: 2 fold
  IFN-γ: 1478 pg/mL
  IFN-γ Fold vs DMSO: 59 fold
  IL-6 pg/ml: 18836 pg/mL
  IL-8 pg/ml: 1118 pg/mL
  IL-10 pg/ml: 5167 pg/mL
  IL-18 pg/ml: 218 pg/mL
  IL-23 pg/ml: 965 pg/mL
  IL-1RA: 90289 pg/mL
  IL-1RA Fold vs DMSO: 25 fold
  IL-1β: 6611 pg/mL
  IL-1β Fold vs DMSO: 2204 fold
  IL-6 Fold vs DMSO: 241 fold
  IL-8 Fold vs DMSO: 4 fold
  IL-10 Fold vs DMSO: 304 fold
  IL-12p70 pg/ml: 113 pg/mL
  IL-12p70 Fold vs DMSO: 38 fold
  IL-18 Fold vs DMSO: 13 fold
  IL-23 Fold vs DMSO: 16 fold
  IP-10 pg/ml: 587 pg/mL
  IP-10 Fold vs DMSO: 2 fold
  MCP-1 pg/ml: 1796 pg/mL
  MCP-1 Fold vs DMSO: 27 fold
  MIP-1α: 24365 pg/mL
  MIP-1α Fold vs DMSO: 487 fold
  MIP-1β: 239694 pg/mL
  MIP-1β Fold vs DMSO: 196 fold
  MIP-3α: 1680 pg/mL
  MIP-3α Fold vs DMSO: 65 fold
  MMP-1 pg/ml: 740 pg/mL
  MMP-1 Fold vs DMSO: 8 fold
  TNF-α: 23017 pg/mL
  TNF-α Fold vs DMSO: 1096 fold
Example 15, 1.0 nM to 10.0 μM
  Peak fold-activation relative to DMSO, IL-12p70: 518 fold
  Peak fold-activation relative to DMSO, IL-18: 18 fold
  Peak fold-activation relative to DMSO, TNF-α: 3051 fold
Example 15, 1.0 nM to 10.0 μM, did not induce at levels >2-fold
  Induction of IFN-ω, IL-2, IL-4, IL-5, IL-7, IL-15, IL-17A, IL-21, IL-27, or IL-29 compared to DMSO control: ≤ 2 fold
